Paper PMC9863297, “Intermolecular Interactions of Edaravone in Aqueous Solutions of Ethaline and Glyceline Inferred from Experiments and Quantum Chemistry Computations” (Molecules, 2023)
Read-outs that look alike come from different tables or passages of the source.

Test: Edaravone solubility, slurry/shake-flask method with spectrophotometric determination at 243 nm
Assay type: physicochemical
Conditions: thermodynamic from solid, read-out: cE solubility concentration
Description: The first step in obtaining a calibration curve was the preparation of a stock solution of edaravone with a concentration of 2.3 mg/mL. This initial solution was successfully diluted in 10 mL volumetric flasks with methanol and the obtained solutions with decreasing concentrations were measured spectrophotometrically. […] Three separate curves were obtained, and the final curve resulted from averaging. […] The limits of detection (LOD) and quantification (LOQ) were calculated as 5.899∙10^−4 mg/mL and 1.770∙10^−3 mg/mL, respectively.
All of the studied deep eutectic solvents included choline chloride, while the second constituent was either glycerol or ethylene glycol. In order to prepare a DES formulation, choline chloride was mixed with the second compound in different molar ratios in sealed test tubes and placed in a water bath at 363.15 K until the formation of a uniform solution. The obtained DES were either used in their neat form or water was added to them in different proportions in order to form binary systems.
During the next stage, edaravone was added in excess amounts to the test tubes containing both neat DES and binary mixtures, which enabled us to obtain its saturated solutions. Samples prepared in such a manner were placed in an Orbital Shaker Incubator ES-20/60 from Biosan (Riga, Latvia) and incubated for 24 h at different temperatures, namely 298.15 K, 303.15 K, 308.15 K and 313.15 K. The temperature adjustment accuracy was 0.1 K and its variability in a 24 h cycle was ±0.5 K. Apart from heating, all of the samples were mixed at 60 rev/min. The increased viscosity and density of DES systems required the samples to be centrifuged at 1000 rev/min for 5 min with the use of EBA 20 centrifuge from Hettich (Tuttlingen, Germany) enabling the undissolved precipitate to remain on the bottom of the test tubes. Next, the samples were filtered using a syringe equipped with a PTFE syringe filer with 0.22 µm pore size. In order to avoid precipitation, the test tubes, syringes and filters were initially heated at a temperature equal to the one of the handled samples. Finally, small amounts of the obtained filtrate were transferred to test tubes filled with methanol and the diluted samples were measured spectrophotometrically. Additionally, for the determination of the mole fractions of edaravone, the density of the samples was measured by weighing a fixed volume of the solution in 10 mL volumetric flasks.
For determining the solubility of edaravone in the studied systems, the samples prepared, as described above, were measured spectrophotometrically using an A360 spectrophotometer from AOE Instruments (Shanghai, China). The spectra were recorded in the 190 nm to 500 nm wavelength range and 1 nm resolution. Methanol was used for the initial calibration of the spectrophotometer and for the dilution of the measured samples, which was conducted in order for the absorbance values to remain below 2.5. The absorbance values at 243 nm were taken into account and based on the calibration curve prepared earlier, the concentration of edaravone in the samples was determined, followed by its mole fractions. The values were averaged from three separate measurements.

Work on `CC1=NN(c2ccccc2)C(=O)C1` [edaravone, 5-methyl-2-phenyl-4H-pyrazol-3-one] yielded a solubility at 24 h (25 °C, aqueous with cosolvent or surfactant or cyclodextrin, water + ETA (ChCl:EG 1:2), x*ETA = 0.2, 298.15 K) of 221 mg/mL, a solubility at 24 h (25 °C, aqueous with cosolvent or surfactant or cyclodextrin, water + ETA (ChCl:EG 1:2), x*ETA = 0.4, 298.15 K) of 407 mg/mL and a solubility at 24 h (25 °C, aqueous with cosolvent or surfactant or cyclodextrin, water + ETA (ChCl:EG 1:2), x*ETA = 0.5, 298.15 K) of 457 mg/mL. The solubility at 24 h (25 °C, aqueous with cosolvent or surfactant or cyclodextrin, water + GLE (ChCl:GL 1:2), x*GLE = 0.2, 298.15 K) was 115 mg/mL, the solubility at 24 h (25 °C, aqueous with cosolvent or surfactant or cyclodextrin, water + GLE (ChCl:GL 1:2), x*GLE = 0.4, 298.15 K) was 233 mg/mL and the solubility at 24 h (25 °C, aqueous with cosolvent or surfactant or cyclodextrin, water + GLE (ChCl:GL 1:2), x*GLE = 0.5, 298.15 K) was 299 mg/mL. For the same compound, the solubility at 24 h (25 °C, aqueous with cosolvent or surfactant or cyclodextrin, water + GLE (ChCl:GL 1:2), x*GLE = 0.8, 298.15 K) was 266 mg/mL, the solubility at 24 h (25 °C, organic solvent or mixture, neat DES choline chloride + glycerol (GLE) 1:2 molar ratio (x*GLE = 1.0), 298.15 K) was 191 mg/mL and the solubility at 24 h (25 °C, organic solvent or mixture, neat DES choline chloride + glycerol (GLE) 1:4 molar ratio, 298.15 K) was 177 mg/mL. For the same compound, the solubility at 24 h (30 °C, aqueous with cosolvent or surfactant or cyclodextrin, water + ETA (ChCl:EG 1:2), x*ETA = 0.2, 303.15 K) was 270 mg/mL, the solubility at 24 h (30 °C, aqueous with cosolvent or surfactant or cyclodextrin, water + ETA (ChCl:EG 1:2), x*ETA = 0.4, 303.15 K) was 505 mg/mL and the solubility at 24 h (30 °C, aqueous with cosolvent or surfactant or cyclodextrin, water + ETA (ChCl:EG 1:2), x*ETA = 0.5, 303.15 K) was 554 mg/mL. It also gave a solubility at 24 h (30 °C, aqueous with cosolvent or surfactant or cyclodextrin, water + GLE (ChCl:GL 1:2), x*GLE = 0.2, 303.15 K) of 148 mg/mL, a solubility at 24 h (30 °C, aqueous with cosolvent or surfactant or cyclodextrin, water + GLE (ChCl:GL 1:2), x*GLE = 0.4, 303.15 K) of 328 mg/mL and a solubility at 24 h (30 °C, aqueous with cosolvent or surfactant or cyclodextrin, water + GLE (ChCl:GL 1:2), x*GLE = 0.5, 303.15 K) of 415 mg/mL. The solubility at 24 h (30 °C, aqueous with cosolvent or surfactant or cyclodextrin, water + GLE (ChCl:GL 1:2), x*GLE = 0.6, 303.15 K) was 464 mg/mL, the solubility at 24 h (30 °C, aqueous with cosolvent or surfactant or cyclodextrin, water + GLE (ChCl:GL 1:2), x*GLE = 0.8, 303.15 K) was 364 mg/mL and the solubility at 24 h (30 °C, organic solvent or mixture, neat DES choline chloride + glycerol (GLE) 1:1 molar ratio, 303.15 K) was 203 mg/mL. The solubility at 24 h (30 °C, organic solvent or mixture, neat DES choline chloride + glycerol (GLE) 1:2 molar ratio (x*GLE = 1.0), 303.15 K) was 282 mg/mL, the solubility at 24 h (30 °C, organic solvent or mixture, neat DES choline chloride + glycerol (GLE) 1:4 molar ratio, 303.15 K) was 246 mg/mL and the solubility at 24 h (35 °C, aqueous with cosolvent or surfactant or cyclodextrin, water + ETA (ChCl:EG 1:2), x*ETA = 0.2, 308.15 K) was 331 mg/mL. The solubility at 24 h (35 °C, aqueous with cosolvent or surfactant or cyclodextrin, water + ETA (ChCl:EG 1:2), x*ETA = 0.4, 308.15 K) was 603 mg/mL, the solubility at 24 h (35 °C, aqueous with cosolvent or surfactant or cyclodextrin, water + GLE (ChCl:GL 1:2), x*GLE = 0.2, 308.15 K) was 201 mg/mL and the solubility at 24 h (35 °C, aqueous with cosolvent or surfactant or cyclodextrin, water + GLE (ChCl:GL 1:2), x*GLE = 0.4, 308.15 K) was 402 mg/mL. It also gave a solubility at 24 h (35 °C, aqueous with cosolvent or surfactant or cyclodextrin, water + GLE (ChCl:GL 1:2), x*GLE = 0.5, 308.15 K) of 518 mg/mL, a solubility at 24 h (35 °C, aqueous with cosolvent or surfactant or cyclodextrin, water + GLE (ChCl:GL 1:2), x*GLE = 0.6, 308.15 K) of 567 mg/mL and a solubility at 24 h (35 °C, aqueous with cosolvent or surfactant or cyclodextrin, water + GLE (ChCl:GL 1:2), x*GLE = 0.8, 308.15 K) of 472 mg/mL. It also gave a solubility at 24 h (35 °C, organic solvent or mixture, neat DES choline chloride + glycerol (GLE) 1:1 molar ratio, 308.15 K) of 274 mg/mL, a solubility at 24 h (35 °C, organic solvent or mixture, neat DES choline chloride + glycerol (GLE) 1:2 molar ratio (x*GLE = 1.0), 308.15 K) of 369 mg/mL and a solubility at 24 h (35 °C, organic solvent or mixture, neat DES choline chloride + glycerol (GLE) 1:4 molar ratio, 308.15 K) of 336 mg/mL. It also gave a solubility at 24 h (40 °C, aqueous with cosolvent or surfactant or cyclodextrin, water + ETA (ChCl:EG 1:2), x*ETA = 0.2, 313.15 K) of 382 mg/mL, a solubility at 24 h (40 °C, aqueous with cosolvent or surfactant or cyclodextrin, water + ETA (ChCl:EG 1:2), x*ETA = 0.4, 313.15 K) of 684 mg/mL and a solubility at 24 h (40 °C, aqueous with cosolvent or surfactant or cyclodextrin, water + GLE (ChCl:GL 1:2), x*GLE = 0.2, 313.15 K) of 252 mg/mL. For the same compound, the solubility at 24 h (40 °C, aqueous with cosolvent or surfactant or cyclodextrin, water + GLE (ChCl:GL 1:2), x*GLE = 0.4, 313.15 K) was 514 mg/mL and the solubility at 24 h (40 °C, aqueous with cosolvent or surfactant or cyclodextrin, water + GLE (ChCl:GL 1:2), x*GLE = 0.5, 313.15 K) was 647 mg/mL.
